These results are taken from patent publication US11311520B2, “Substituted dihydroimidazopyridinediones as MKNK1 and MKNK2 inhibitors” (Bayer Pharma Aktiengesellschaft, priority 2017, dated 2022).

Molecules are shown by their SMILES. Where a name gives a salt, the structure may show the parent alone.

For this test, the target named is human full-length MKNK1 (Homo sapiens (Human), UniProt Q9BUB5, T344D). As to the kind of experiment: MKNK1 kinase high ATP assay (TR-FRET). The following applies: 2 mM ATP, 15 min preincubation with enzyme, GST-MKNK1 (T344D). It counts as biochemical. The method, then:
MKNK1 Kinase High ATP Assay
MKNK1-inhibitory activity at high ATP of compounds of the present invention after their preincubation with MKNK1 was quantified employing the TR-FRET-based MKNK1 high ATP assay as described in the following paragraphs.
A recombinant fusion protein of Glutathione-S-Transferase (GST, N-terminally) and human full-length MKNK1 (amino acids 1-424 and T344D of accession number BAA 19885.1), expressed in insect cells using baculovirus expression system and purified via glutathione sepharose affinity chromatography, was purchased from Carna Biosciences (product no 02-145) and used as enzyme. As substrate for the kinase reaction the biotinylated peptide biotin-Ahx-IKKRKLTRRKSLKG (SEQ ID NO: 1) (C-terminus in amide form) was used, which can be purchased e.g. from the company Biosyntan (Berlin-Buch, Germany)
For the assay 50 nL of a 100 fold concentrated solution of the test compound in DMSO was pipetted into a black low volume 384 well microtiter plate (Greiner Bio-One, Frickenhausen, Germany), 2 μL of a solution of MKNK1 in aqueous assay buffer [50 mM HEPES pH 7.5, 5 mM MgCl2, 1.0 mM dithiothreitol, 0.005% (v/v) Nonidet-P40 (Sigma)] was added and the mixture was incubated for […] at 22° C. to allow pre-binding of the test compounds to the enzyme before the start of the kinase reaction. Then the kinase reaction was started by the addition of 3 μL of a solution of adenosine-tri-phosphate (ATP, 3.3 mM=>final conc. in the 5 μL assay volume is 2 mM) and substrate (0.1 μM=>final conc. in the 5 μL assay volume is 0.06 μM) in assay buffer and the resulting mixture was incubated for a reaction time of 30 min at 22° C. The concentration of MKNK1 was adjusted depending of the activity of the enzyme lot and was chosen appropriate to have the assay in the linear range, typical concentrations were in the range of 0.003 μg/mL. The reaction was stopped by the addition of 5 μL of a solution of TR-FRET detection reagents (5 nM streptavidine-XL665 [Cisbio Bioassays, Codolet, France] and 1 nM anti-ribosomal protein S6 (pSer236)-antibody from Invitrogen [#44921G] and 1 nM LANCE EU-W1024 labeled ProteinG [Perkin-Elmer, product no. AD0071]) in an aqueous EDTA-solution (100 mM EDTA, 0.1% (w/v) bovine serum albumin in 50 mM HEPES pH 7.5).
The resulting mixture was incubated for 1 h at 22° C. to allow the formation of complex between the phosphorylated biotinylated peptide and the detection reagents. Subsequently the amount of phosphorylated substrate was evaluated by measurement of the resonance energy transfer from the Eu-chelate to the streptavidine-XL. Therefore, the fluorescence emissions at 620 nm and 665 nm after excitation at 350 nm were measured in a TR-FRET reader, e.g. a Rubystar (BMG Labtechnologies, Offenburg, Germany) or a Viewlux (Perkin-Elmer). The ratio of the emissions at 665 nm and at […] was taken as the measure for the amount of phosphorylated substrate. The data were normalised (enzyme reaction without inhibitor=0% inhibition, all other assay components but no enzyme=100% inhibition).
On the technique in general: Time-resolved FRET reads energy transfer from a long-lived donor to a nearby acceptor.

human full-length MKNK1, sequence (Q9BUB5 other isoform, or with tags, fused parts or gaps T344D): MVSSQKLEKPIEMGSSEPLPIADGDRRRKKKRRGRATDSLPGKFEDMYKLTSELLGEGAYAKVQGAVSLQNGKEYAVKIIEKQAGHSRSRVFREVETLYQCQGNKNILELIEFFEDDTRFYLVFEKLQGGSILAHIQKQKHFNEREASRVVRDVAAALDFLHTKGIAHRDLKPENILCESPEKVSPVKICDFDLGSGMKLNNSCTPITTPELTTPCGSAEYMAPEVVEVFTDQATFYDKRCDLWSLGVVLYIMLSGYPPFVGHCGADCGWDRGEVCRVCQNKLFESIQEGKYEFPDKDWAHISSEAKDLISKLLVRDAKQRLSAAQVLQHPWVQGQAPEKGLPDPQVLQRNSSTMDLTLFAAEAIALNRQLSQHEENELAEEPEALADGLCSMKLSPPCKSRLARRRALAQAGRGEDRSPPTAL

As to `Cc1cc(Nc2ncnc3sc(C(=O)N(C)CCN(C)C)cc23)c(=O)n2c1C(=O)NC2(C)C` [Example 138, N-[2-(Dimethylamino)ethyl]-N-methyl-4-[(3,3,8-trimethyl-1,5-dioxo-1,2,3,5-tetrahydroimidazo[1,5-a]pyridin-6-yl)amino]thieno[2,3-d]pyrimidine-6-carboxamide], inhibition was half-maximal at 33.6 nM (IC50).
Take `Cc1cc(Nc2ncnc3sc(C(=O)N(C)CCN(C)C)cc23)c(=O)n2c1C(=O)NC21CCC(F)(F)CC1` [Example 82, 4-[(4,4-Difluoro-8′-methyl-1′,5′-dioxo-1′,5′-dihydro-2′H-spiro[cyclohexane-1,3′-imidazo[1,5-a]pyridin]-6′-yl)amino]-N-[2-(dimethylamino)ethyl]-N-methylthieno[2,3-d]pyrimidine-6-carboxamide]: half-maximal inhibition (IC50) was put at 18.3 nM.
As to `Cc1cc(Nc2ncnc3cc(F)cc(F)c23)c(=O)n2c1C(=O)NC21CCCCC1` [Example 114, 6′-[(5,7-Difluoroquinazolin-4-yl)amino]-8′-methyl-2′H-spiro[cyclohexane-1,3′-imidazo[1,5-a]pyridine]-1′,5′-dione], it took 8.6 nM to reach half-maximal inhibition (IC50).
Still for that read-out and setting: under `Cc1cc(Nc2ncnc(NC(=O)C3CC3)n2)c(=O)n2c1C(=O)NC2(C)C` [Example 40, N-[4-[(3,3,8-Trimethyl-1,5-dioxo-1,2,3,5-tetrahydroimidazo[1,5-a]pyridin-6-yl)amino]-1,3,5-triazin-2-yl]cyclopropanecarboxamide] stands 20.7 nM; under `Cc1cc(Nc2ncnc3[nH]ccc23)c(=O)n2c1C(=O)NC21CCC(F)(F)CC1` [Example 90, 4,4-Difluoro-8′-methyl-6′-(7H-pyrrolo[2,3-d]pyrimidin-4-ylamino)-2′H-spiro[cyclohexane-1,3′-imidazo[1,5-a]pyridine]-1′,5′-dione], 0.7 nM.
Same read-out and setting: under `Cc1cc(Nc2ncnc3[nH]ncc23)c(=O)n2c1C(=O)NC21CCC(F)(F)CC1` [Example 105, 4,4-Difluoro-8′-methyl-6′-(1H-pyrazolo[3,4-d]pyrimidin-4-ylamino)-2′H-spiro[cyclohexane-1,3′-imidazo[1,5-a]pyridine]-1′,5′-dione] stands 8.3 nM.
In the case of `Cc1cc(Nc2ncnc3[nH]ccc23)c(=O)n2c1C(=O)NC21CCSCC1` [Example 196, 8-methyl-6-(7H-pyrrolo[2,3-d]pyrimidin-4-ylamino)-2′,3′,5′,6′-tetrahydro-2H-spiro[imidazo[1,5-a]pyridine-3,4′-thiopyran]-1,5-dione], the midpoint of inhibition, the IC50, lay at 0.5 nM.
Consider `Cc1cc(Nc2ncnc3occc23)c(=O)n2c1C(=O)NC21CCCCC1` [Example 52, 6′-(Furo[2,3-d]pyrimidin-4-ylamino)-8′-methyl-2′H-spiro[cyclohexane-1,3′-imidazo[1,5-a]pyridine]-1′,5′-dione], for which the 50% inhibitory concentration (IC50) (usually the concentration needed to halve the response being measured) was 13 nM.
Same read-out and setting: under `Cc1cc(Nc2ncnc3oc(C)c(C)c23)c(=O)n2c1C(=O)NC21CCCCC1` [Example 38, 6′-[(5,6-Dimethylfuro[2,3-d]pyrimidin-4-yl)amino]-8′-methyl-2′H-spiro[cyclohexane-1,3′-imidazo[1,5-a]pyridine]-1′,5′-dione] stands 79.9 nM.
With `Cc1cc(Nc2ncnc3c2CN(S(=O)(=O)c2ccccn2)C3)c(=O)n2c1C(=O)NC21CCCCC1` [Example 79, 8′-Methyl-6′-{[6-(pyridin-2-ylsulfonyl)-6,7-dihydro-5H-pyrrolo[3,4-d]pyrimidin-4-yl]amino}-2′H-spiro[cyclohexane-1,3′-imidazo[1,5-a]pyridine]-1′,5′-dione], the IC50 was 122 nM.
With `Cc1cc(Nc2ncnc3ccc(F)cc23)c(=O)n2c1C(=O)N[C@]21CC[C@@](O)(C(F)(F)C(F)(F)F)CC1` [Example 192, (cis)-6′-[(6-fluoroquinazolin-4-yl)amino]-4-hydroxy-8′-methyl-4-(pentafluoroethyl)-2′H-spiro[cyclohexane-1,3′-imidazo[1,5-a]pyridine]-1′,5′-dione], the IC50 turned out to be 281 nM.
Consider `Cc1cc(Nc2ncnc3[nH]ncc23)c(=O)n2c1C(=O)NC21CCCCC1` [Example 7, 8′-Methyl-6′-(1H-pyrazolo[3,4-d]pyrimidin-4-ylamino)-2′H-spiro[cyclohexane-1,3′-imidazo[1,5-a]pyridine]-1′,5′-dione], for which the half-inhibitory concentration (IC50) came to 2 nM.
`Cc1cc(Nc2ncnc3sc(C(=O)N4CCC(N(C)C)CC4)cc23)c(=O)n2c1C(=O)NC21CCC1` [Example 157, 6′-[(6-{[4-(Dimethylamino)piperidin-1-yl]carbonyl}thieno[2,3-d]pyrimidin-4-yl)amino]-8′-methyl-2′H-spiro[cyclobutane-1,3′-imidazo[1,5-a]pyridine]-1′,5′-dione] registered an IC50 of 7.9 nM.
In turn, `Cc1cc(Nc2ncnc3sc(C(=O)N(C)CCN(C)C)cc23)c(=O)n2c1C(=O)NC21CCC1` [Example 152, N-[2-(Dimethylamino)ethyl]-N-methyl-4-[(8′-methyl-1′,5′-dioxo-1′,5′-dihydro-2′H-spiro[cyclobutane-1,3′-imidazo[1,5-a]pyridin]-6′-yl)amino]thieno[2,3-d]pyrimidine-6-carboxamide] had a half-maximal inhibitory concentration (IC50) of 7.4 nM.
On the same count and under the same terms, under `Cc1cc(Nc2ncnc3[nH]ncc23)c(=O)n2c1C(=O)NC21CCCC1` [Example 68, 8′-methyl-6′-(1H-pyrazolo[3,4-d]pyrimidin-4-ylamino)-2′H-spiro[cyclopentane-1,3′-imidazo[1,5-a]pyridine]-1′,5′-dione] stands 1.8 nM; under `Cc1cc(Nc2ncnc(NC(=O)C3CC3)n2)c(=O)n2c1C(=O)NC21CCCCC1` [Example 1, N-{4-[(8′-Methyl-1′,5′-dioxo-1′,5′-dihydro-2′H-spiro[cyclohexane-1,3′-imidazo[1,5-a]pyridin]-6′-yl)amino]-1,3,5-triazin-2-yl}cyclopropanecarboxamide], 2.5 nM; under `Cc1cc(Nc2ncnc3scnc23)c(=O)n2c1C(=O)NC21CSC1` [Example 173, 8-methyl-6-[([1,3]thiazolo[5,4-d]pyrimidin-7-yl)amino]-2H-spiro[imidazo[1,5-a]pyridine-3,3′-thietane]-1,5-dione], 5.8 nM.
For the compound `Cc1cc(Nc2ncnc3sc(C(=O)N4CC(C#N)C4)cc23)c(=O)n2c1C(=O)NC21CCC1` [Example 155, 1-({4-[(8′-Methyl-1′,5′-dioxo-1′,5′-dihydro-2′H-spiro[cyclobutane-1,3′-imidazo[1,5-a]pyridin]-6′-yl)amino]thieno[2,3-d]pyrimidin-6-yl}carbonyl)azetidine-3-carbonitrile], the IC50 is 5.3 nM.
`Cc1cc(Nc2ncnc3[nH]ncc23)c(=O)n2c1C(=O)NC21CCCCC1` [Example 34, 8′-Methyl-6′-(1H-pyrazolo[3,4-d]pyrimidin-4-ylamino)-2′H-spiro[cyclohexane-1,3′-imidazo[1,5-a]pyridine]-1′,5′-dione hydrochloride] gave a half-inhibitory concentration (IC50) (hydrochloride) of 8.1 nM.
Regarding `Cc1cc(Nc2ncnc3sc(C(=O)N4CC(NC(=O)OC(C)(C)C)C4)cc23)c(=O)n2c1C(=O)NC21CCCCC1` [Example 27, tert-Butyl [1-({4-[(8′-methyl-1′,5′-dioxo-1′,5′-dihydro-2′H-spiro[cyclohexane-1,3′-imidazo[1,5-a]pyridin]-6′-yl)amino]thieno[2,3-d]pyrimidin-6-yl}carbonyl)azetidin-3-yl]carbamate], it took 4 nM to reach half-maximal inhibition (IC50).
On the same count and under the same terms, the value for `Cc1cc(Nc2ncnc3c2ncn3CC(=O)N(C)CCN(C)C)c(=O)n2c1C(=O)NC21CCCCC1` [Example 50] was 950 nM.
In turn, `Cc1cc(Nc2ncnc3sccc23)c(=O)n2c1C(=O)NC21CCCCC1` [Example 5, 8′-Methyl-6′-(thieno[2,3-d]pyrimidin-4-ylamino)-2′H-spiro[cyclohexane-1,3′-imidazo[1,5-a]pyridine]-1′,5′-dione] gave an IC50 of 6.4 nM. This IC50 is about 150-fold lower than that of the compound before.
The compound `Cc1cc(Nc2ncnc3sc(C(=O)O)cc23)c(=O)n2c1C(=O)NC21CCCC1` [Example 58, 4-[(8′-Methyl-1′,5′-dioxo-1′,5′-dihydro-2′H-spiro[cyclopentane-1,3′-imidazo[1,5-a]pyridin]-6′-yl)amino]thieno[2,3-d]pyrimidine-6-carboxylic acid] showed an IC50 of 18.8 nM.
